From patent US7173004B2, “Macrocyclic isoquinoline peptide inhibitors of hepatitis C virus” (Bristol-Myers Squibb Company, priority 2003, dated 2007)
Counter-ions that a name gives are not always drawn.

biological target: T1, HCV NS3/4A protease complex, BMS strain (genotype 1a) (UniProt P27958, C1454S/C1711G, species not given/STRAIN_BMS); experiment: Recombinant HCV NS3/4A protease complex FRET peptide assay, BMS strain; assay type: biochemical; conditions: NS3/4A BMS Strain; activity range classes
T1 construct: b1001: DNA encoding the recombinant HCV NS3/4A protease complex (amino acids 1027 to 1711) ... a three-lysine solubilizing tail was added at the 3′-end of the NS4A coding region; fused on or other part: Three-lysine solubilising tail at the C-terminus of NS4A; A His tag is implied by the pET21b vector and Ni-NTA purification
Method in brief: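 Recombinant NS3/4A (aa 1027–1711) from H77C, J4L6S or BMS strains, with C1454S and C1711G mutations and three-lysine tail, expressed in E. coli and Ni-NTA/gel-filtration purified to >90%. Inhibition of cleavage of a FRET peptide substrate measured.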

| SMILES | IC50 [nM] |
| --- | --- |
| COc1ccc2c(OC3CC4C(=O)NC5(C(=O)O)CC5C=CCCCCCC(NC(=O)OC(C)(C)C)C(=O)N4C3)nccc2c1 (stereo not shown) [Compound 17A] | < 50 |
| CC(C)(C)OC(=O)N[C@H]1CCCCC/C=C\[C@@H]2C[C@@]2(C(=O)O)NC(=O)[C@@H]2C[C@@H](Oc3nccc4ccccc34)CN2C1=O [Compound 1, 14-tert-Butoxycarbonylamino-18-(isoquinolin-1-yloxy)-2,15-dioxo-3,16-diaza-tricyclo[14.3.0.0^4,6]nonadec-7-ene-4-carboxylic acid] | 50 to 500 |
| COc1ccc2c(O[C@@H]3C[C@H]4C(=O)N[C@]5(C(=O)O)C[C@H]5/C=C\CCCSC(C)(C)[C@H](NC(=O)OC(C)(C)C)C(=O)N4C3)nccc2c1 [Compound 79, (1S,4R,6S,14R,18R)-7-cis-14-tert-Butoxycarbonylamino-13,13-dimethyl-18-(6-methoxy-isoquinolin-1-yloxy)-2,15-dioxo-12-thia-3,16-diazatricyclo[14.3.0.0^4,6]nonadec-7-ene-4-carboxylic acid] | 5000 to 50000 |

same assay, conditions: NS3/4A BMS strain; activity range symbols

| SMILES | IC50 [nM] |
| --- | --- |
| CCC1(S(=O)(=O)NC(=O)C23CC2C=CCCCSCC(NC(=O)OC(C)C)C(=O)N2CC(Oc4nccc5cc(OC)ccc45)CC2C(=O)N3)CC1 (stereo not shown) [Compound 44] | < 50 |
| N[C@H]1CCCCC/C=C\[C@@H]2C[C@@]2(C(=O)NS(=O)(=O)C2CC2)NC(=O)[C@@H]2C[C@@H](Oc3nccc4ccccc34)CN2C1=O [Compound 11, Cyclopropanesulfonic acid [14-amino-18-(isoquinolin-1-yloxy)-2,15-dioxo-3,16-diaza-tricyclo[14.3.0.0^4,6]nonadec-7-ene-4-carbonyl]-amide bis hydrochloride] | < 50 |
| O=C(CC1CC1)NC1CCCCCC=CC2CC2(C(=O)NS(=O)(=O)C2CC2)NC(=O)C2CC(Oc3nccc4ccccc34)CN2C1=O (stereo not shown) [Compound 22] | < 50 |
| CCC1(S(=O)(=O)NC(=O)C23CC2C=CCOCCCC(NC(=O)NC2CCCC2)C(=O)N2CC(Oc4nccc5cc(OC)ccc45)CC2C(=O)N3)CC1 (stereo not shown) [Compound 38] | < 50 |
| CC(C)(C)OC(=O)N[C@H]1CCCCC/C=C\[C@@H]2C[C@@]2(C(=O)NS(=O)(=O)C2CCC2)NC(=O)[C@@H]2C[C@@H](Oc3nccc4ccccc34)CN2C1=O [Compound 9, [4-Cyclobutanesulfonylaminocarbonyl-18-(isoquinolin-1-yloxy)-2,15-dioxo-3,16-diaza-tricyclo[14.3.0.0^4,6]nonadec-7-en-14-yl]-carbamic acid tert-butyl ester] | < 50 |
| COc1ccc2c(OC3CC4C(=O)NC5(C(=O)NS(=O)(=O)C6(C)CC6)CC5C=CCOCCCC(NC(=O)NC5CCCC5)C(=O)N4C3)nccc2c1 (stereo not shown) [Compound 36] | < 50 |
| COc1ccc2c(OC3CC4C(=O)NC5(C(=O)NS(=O)(=O)C6CC6)CC5C=CCOCCCC(NC(=O)OCC(C)(C)C)C(=O)N4C3)nccc2c1 (stereo not shown) [Compound 32] | < 50 |
| CC(=O)NC1CCCCCC=CC2CC2(C(=O)NS(=O)(=O)C2CC2)NC(=O)C2CC(Oc3nccc4ccccc34)CN2C1=O (stereo not shown) [Compound 26] | < 50 |
| COc1ccc2c(OC3CC4C(=O)NC5(C(=O)NS(=O)(=O)C6CC6)CC5C=CCCCSCC(NC(=O)OCC(C)(C)C)C(=O)N4C3)nccc2c1 (stereo not shown) [Compound 75] | < 50 |
| CC(C)S(=O)(=O)NC(=O)[C@@]12C[C@H]1/C=C\CCCCC[C@H](NC(=O)OC(C)(C)C)C(=O)N1C[C@H](Oc3nccc4ccccc34)C[C@H]1C(=O)N2 [Compound 3, [18-(Isoquinolin-1-yloxy)-2,15-dioxo-4-(propane-2-sulfonylaminocarbonyl)-3,16-diaza-tricyclo-[14.3.0.0^4,6]nonadec-7-en-14-yl]-carbamic acid tert-butyl ester] | < 50 |
| COc1ccc2c(OC3CC4C(=O)NC5(C(=O)NS(=O)(=O)C6CC6)CC5C=CCOCCCC(NC(=O)NC(C)(C)C)C(=O)N4C3)nccc2c1 (stereo not shown) [Compound 34] | < 50 |
| COC(=O)N[C@H]1CCCCC/C=C\[C@@H]2C[C@@]2(C(=O)NS(=O)(=O)C2CC2)NC(=O)[C@@H]2C[C@@H](Oc3nccc4ccccc34)CN2C1=O [Compound 12, [4-Cyclopropanesulfonylaminocarbonyl-18-(isoquinolin-1-yloxy)-2,15-dioxo-3,16-diaza-tricyclo[14.3.0.0^4,6]nonadec-7-en-14-yl]-carbamic acid methyl ester] | < 50 |
| CCC1(S(=O)(=O)NC(=O)C23CC2C=CCCCOC(C)C(NC(=O)OCC(C)(C)C)C(=O)N2CC(Oc4nccc5cc(OC)ccc45)CC2C(=O)N3)CC1 (stereo not shown) [Compound 71] | < 50 |
| COc1ccc2c(OC3CC4C(=O)NC5(C(=O)NS(=O)(=O)C6CC6)CC5C=CCCCCCC(NC(=O)N5CCCC5)C(=O)N4C3)nccc2c1 (stereo not shown) [Compound 60] | < 50 |
| CC1(OC(=O)NC2CCCCCC=CC3CC3(C(=O)NS(=O)(=O)C3CC3)NC(=O)C3CC(Oc4nccc5ccccc45)CN3C2=O)CC1 (stereo not shown) [Compound 59] | < 50 |
| O=C(N[C@H]1CCCCC/C=C\[C@@H]2C[C@@]2(C(=O)NS(=O)(=O)C2CC2)NC(=O)[C@@H]2C[C@@H](Oc3nccc4ccccc34)CN2C1=O)O[C@H]1CCOC1 [Compound 15, [4-Cyclopropanesulfonylaminocarbonyl-18-(isoquinolin-1-yloxy)-2,15-dioxo-3,16-diaza-tricyclo[14.3.0.0^4,6]nonadec-7-en-14-yl]-carbamic acid tetrahydro-furan-3-yl ester] | < 50 |
| CC1(OC(=O)N[C@H]2CCCCC/C=C\[C@@H]3C[C@@]3(C(=O)NS(=O)(=O)C3CC3)NC(=O)[C@@H]3C[C@@H](Oc4nccc5ccccc45)CN3C2=O)CCC1 [Compound 56, [(Z)-(1S,4R,14S,18R)-4-cyclopropanesulfonylaminocarbonyl-18-(isoquinolin-1-yloxy)-2,15-dioxo-3,16-diaza-tricyclo[14.3.0.0^4,6]nonadec-7-en-14-yl]-carbamic acid 1-methyl-cyclobutyl ester] | < 50 |

| SMILES | IC50 [nM] |
| --- | --- |
| CC(C)(CCl)OC(=O)NC1CCCCCC=CC2CC2(C(=O)NS(=O)(=O)C2CC2)NC(=O)C2CC(Oc3nccc4ccccc34)CN2C1=O (stereo not shown) [Compound 52] | < 50 |
| CC(C)(C)OC(=O)N[C@H]1CCCCC/C=C\[C@@H]2C[C@@]2(C(=O)NS(C)(=O)=O)NC(=O)[C@@H]2C[C@@H](Oc3nccc4ccccc34)CN2C1=O [Compound 2, [18-(Isoquinolin-1-yloxy)-4-methanesulfonylaminocarbonyl-2,15-dioxo-3,16-diaza-tricyclo[14.3.0.0^4,6]nonadec-7-en-14-yl]-carbamic acid tert-butyl ester] | < 50 |
| COc1ccc2c(OC3CC4C(=O)NC5(C(=O)NS(=O)(=O)C6(C)CC6)CC5C=CCCCSCC(NC(=O)NC5CCCC5)C(=O)N4C3)nccc2c1 (stereo not shown) [Compound 43] | < 50 |
| COc1ccc2c(OC3CC4C(=O)NC5(C(=O)NS(=O)(=O)C6(C)CC6)CC5C=CCCCS(=O)(=O)CC(NC(=O)OC(C)(C)C)C(=O)N4C3)nccc2c1 (stereo not shown) [Compound 49] | 50 to 500 |
| CCC1(S(=O)(=O)NC(=O)C23CC2C=CCCC[S+]([O-])CC(NC(=O)OC(C)(C)C)C(=O)N2CC(Oc4nccc5cc(OC)ccc45)CC2C(=O)N3)CC1 (stereo not shown) [Compound 47] | < 50 |
| COc1ccc2c(OC3CC4C(=O)NC5(C(=O)NS(=O)(=O)C6CC6)CC5C=CCCCOC(C)C(NC(=O)OC(C)C)C(=O)N4C3)nccc2c1 (stereo not shown) [Compound 64] | < 50 |
| COc1ccc2c(OC3CC4C(=O)NC5(C(=O)NS(=O)(=O)C6(C)CC6)CC5C=CCCCSCC(NC(=O)OCC(C)(C)C)C(=O)N4C3)nccc2c1 (stereo not shown) [Compound 42] | < 50 |
| COc1ccc2c(OC3CC4C(=O)NC5(C(=O)NS(=O)(=O)C6CC6)CC5C=CCCCOC(C)C(NC(=O)OCC(C)(C)C)C(=O)N4C3)nccc2c1 (stereo not shown) [Compound 63] | < 50 |
| CC(C)(C)OC(=O)NC1CCCCCC=CC2CC2(C(=O)NS(=O)(=O)C2CC2)NC(=O)C2CC(Oc3nc(Cl)cc4ccccc34)CN2C1=O (stereo not shown) [Compound 57] | < 50 |
| COc1ccc2c(OC3CC4C(=O)NC5(C(=O)NS(=O)(=O)C6CC6)CC5C=CCOCCCC(NC(=O)OC(C)(C)C)C(=O)N4C3)nccc2c1 (stereo not shown) [Compound 28, [4-Cyclopropanesulfonylaminocarbonyl-18-(6-methoxy-isoquinolin-1-yloxy)-2,15-dioxo-10-oxa-3,16-diaza-tricyclo[14.3.0.0^4,6]nonadec-7-en-14-yl]-carbamic acid tert-butyl ester] | < 50 |
| CCC1(S(=O)(=O)NC(=O)C23CC2C=CCCCOC(C)C(NC(=O)OC(C)(C)C)C(=O)N2CC(Oc4nccc5cc(OC)ccc45)CC2C(=O)N3)CC1 (stereo not shown) [Compound 70] | < 50 |
| CCCC1(S(=O)(=O)NC(=O)[C@@]23C[C@H]2CCCCCCC[C@H](NC(=O)OC(C)(C)C)C(=O)N2C[C@H](Oc4nccc5ccccc45)C[C@H]2C(=O)N3)CC1 [Compound 7, [18-(Isoquinolin-1-yloxy)-2,15-dioxo-4-(1-propyl-cyclopropanesulfonylaminocarbonyl)-3,16-diaza-tricyclo[14.3.0.0^4,6]nonadec-14-yl]-carbamic acid tert-butyl ester] | < 50 |
| COc1ccc2c(OC3CC4C(=O)NC5(C(=O)NS(=O)(=O)C6(C)CC6)CC5C=CCCCOC(C)C(NC(=O)OCC(C)(C)C)C(=O)N4C3)nccc2c1 (stereo not shown) [Compound 67] | < 50 |
| COCC(=O)NC1CCCCCC=CC2CC2(C(=O)NS(=O)(=O)C2CC2)NC(=O)C2CC(Oc3nccc4ccccc34)CN2C1=O (stereo not shown) [Compound 24] | < 50 |
| COc1ccc2c(O[C@@H]3C[C@H]4C(=O)N[C@]5(C(=O)NS(=O)(=O)C6CC6)C[C@H]5/C=C\CCCS(=O)(=O)C[C@H](NC(=O)OC(C)(C)C)C(=O)N4C3)nccc2c1 [Compound 19] | < 50 |
| O=C(NC1CCCCCC=CC2CC2(C(=O)NS(=O)(=O)C2CC2)NC(=O)C2CC(Oc3nccc4ccccc34)CN2C1=O)OC1CCCC1 (stereo not shown) [Compound 20] | < 50 |

same assay, conditions: read-out: IC50 against the BMS strain NS3/4A protease in the enzyme assay; BMS strain

| SMILES | IC50 [nM] |
| --- | --- |
| CC(C)(C)OC(=O)N[C@H]1CCCCC/C=C\[C@@H]2C[C@@]2(C(=O)NS(C)(=O)=O)NC(=O)[C@@H]2C[C@@H](Oc3nccc4ccccc34)CN2C1=O [Compound 2, [18-(Isoquinolin-1-yloxy)-4-methanesulfonylaminocarbonyl-2,15-dioxo-3,16-diaza-tricyclo[14.3.0.0^4,6]nonadec-7-en-14-yl]-carbamic acid tert-butyl ester] | 26 |
